According to US20260022097A1 (priority 2022, published 2026):
Read-outs that look alike come from different tables or passages of the source.

Key:
[1] = biological target: T1, delta-opioid receptor (DOR) (Homo sapiens, UniProt P41143); assay: inhibition of forskolin-induced cAMP accumulation assay, DOR antagonist mode versus SNC80; format: cell-based; conditions: for IC50: read-out: DOR Antagonist IC50+/-SEM
mu-opioid receptor (MOR) = mu-opioid receptor (MOR) (Homo sapiens, UniProt P35372); assay: cell-based; format: cell-based; conditions: for EC50: read-out: MOR Agonist EC50+/-SEM; for Emax: read-out: MOR Agonist % Emax+/-SEM
mu-opioid receptor (MOR), sequence (P35372 whole entry): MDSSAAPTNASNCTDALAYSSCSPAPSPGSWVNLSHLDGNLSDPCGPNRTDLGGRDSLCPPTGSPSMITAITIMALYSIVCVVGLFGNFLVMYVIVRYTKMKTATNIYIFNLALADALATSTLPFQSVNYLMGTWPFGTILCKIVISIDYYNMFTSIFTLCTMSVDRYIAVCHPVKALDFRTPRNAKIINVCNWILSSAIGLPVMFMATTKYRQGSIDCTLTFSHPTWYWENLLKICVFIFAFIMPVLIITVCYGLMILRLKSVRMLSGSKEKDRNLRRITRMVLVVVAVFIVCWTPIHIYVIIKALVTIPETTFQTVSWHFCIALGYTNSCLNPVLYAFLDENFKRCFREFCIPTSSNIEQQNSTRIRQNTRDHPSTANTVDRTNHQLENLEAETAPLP

squirrel monkeys [2] = assay: ventilatory ratio / respiratory effects in squirrel monkeys; format: in vivo
[3] = biological target: kappa-opioid receptor (KOR) (Homo sapiens, UniProt P41145); assay: inhibition of forskolin-induced cAMP accumulation assay, KOR antagonist mode versus U50488H; format: cell-based; conditions: for IC50: read-out: KOR Antagonist IC50+/-SEM
kappa-opioid receptor (KOR), sequence (P41145 whole entry): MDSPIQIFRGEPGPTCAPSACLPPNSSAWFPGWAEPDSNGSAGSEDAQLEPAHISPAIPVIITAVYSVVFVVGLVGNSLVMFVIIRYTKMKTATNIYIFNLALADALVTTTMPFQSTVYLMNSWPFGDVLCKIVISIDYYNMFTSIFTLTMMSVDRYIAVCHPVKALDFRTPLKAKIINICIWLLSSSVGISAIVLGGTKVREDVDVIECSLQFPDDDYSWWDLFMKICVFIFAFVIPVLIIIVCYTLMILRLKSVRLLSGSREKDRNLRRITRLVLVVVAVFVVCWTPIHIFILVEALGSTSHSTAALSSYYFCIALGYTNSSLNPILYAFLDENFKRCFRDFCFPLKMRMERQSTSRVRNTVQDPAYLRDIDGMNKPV

MOR [4] = biological target: T2, MOR (Homo sapiens, UniProt P35372); assay: GTP assay (G-protein activation) at MOR; format: biochemical
T2 sequence (P35372 whole entry): as the sequence (P35372 whole entry) above

squirrel monkeys [5] = assay: antinociceptive effects in vivo in squirrel monkeys
[6] = biological target: T1, delta-opioid receptor (DOR); assay: inhibition of forskolin-induced cAMP accumulation assay, DOR agonist mode; format: cell-based; conditions: for Emax: read-out: DOR Agonist % Emax+/-SEM (converted); for EC50: read-out: DOR Agonist EC50+/-SEM
MOR [7] = biological target: T2, MOR; assay: binding affinity at MOR

T1 sequence (P41143 whole entry): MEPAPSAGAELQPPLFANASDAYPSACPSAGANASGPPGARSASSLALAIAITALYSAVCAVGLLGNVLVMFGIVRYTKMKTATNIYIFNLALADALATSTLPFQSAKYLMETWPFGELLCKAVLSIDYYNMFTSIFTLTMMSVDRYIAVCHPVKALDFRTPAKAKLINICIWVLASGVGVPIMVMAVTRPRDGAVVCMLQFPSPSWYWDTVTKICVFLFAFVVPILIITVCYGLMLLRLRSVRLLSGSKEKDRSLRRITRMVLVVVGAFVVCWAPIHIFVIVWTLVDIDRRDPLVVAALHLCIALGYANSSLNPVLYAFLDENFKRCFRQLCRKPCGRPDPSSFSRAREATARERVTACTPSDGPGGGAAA

Compound | DOR Antagonist % Imax+/-SEM ([1]; normalized to naltrexone) | IC50 ([1]; versus EC50 of SNC80) | EC50 (mu-opioid receptor (MOR)) | KOR Antagonist % Imax+/-SEM ([3]; normalized to nor-BNI) | IC50 ([3]; versus EC90 of U50488H) | EC50 [6] | Emax (mu-opioid receptor (MOR)) | other results
CC=C[C@H]1[C@H]2CCC[C@]1(c1cccc(O)c1)CCN2CCc1ccccc1 (stereo in doubt) [Compound 22, 3-((1R,5S,9R)-2-phenethyl-9-((E)-prop-1-en-1-yl)-2-azabicyclo[3.3.1]nonan-5-yl) phenol] | 143.3 ± 11.9% | 113 ± 19.8 nM | 2.61 nM | 111.6 ± 7.9% | 35 ± 9.72 nM |  |  | MOR Agonist % Emax+/-SEM (mu-opioid receptor (MOR)): 2.61 ± 0.64 (89.5 ± 2.9%); effect on ventilatory ratio (squirrel monkeys [2]): slightly lessor effects on ventilatory ratio; respiratory effects compared with morphine (squirrel monkeys [2]): lessor respiratory effects; Emax (MOR [4]): 18%; antinociceptive effects (squirrel monkeys [5]): had antinociceptive effects
CC=C[C@@H]1C2CCC[C@@]1(c1cccc(O)c1)CCN2CCc1ccccc1 (stereo in doubt) [Compound 27, 3-((1R,5R,9S)-2-Phenethyl-9-((E)-prop-1-en-1-yl)-2-azabicyclo[3.3.1]nonan-5-yl) phenol] |  |  | 4.66 nM | 111.8 ± 2.2% | 163 ± 37 nM | 60.5 ± 3.74 nM | 57.5% | Emax [6]: 66.7%
C=C[C@H]1[C@H]2CCC[C@]1(c1cccc(O)c1)CCN2CCc1ccccc1 [Compound 13, 3-((1R,5S,9R)-2-Phenethyl-9-vinyl-2-azabicyclo[3.3.1]nonan-5-yl) phenol] | 119.1 ± 15.5% | 113 ± 43.6 nM | 1.44 nM | 97.1 ± 9.2% | 74 ± 30.5 nM |  |  | MOR Agonist % Emax+/-SEM (mu-opioid receptor (MOR)): 1.44 ± 0.48 (94.7 ± 3.1%); effect on ventilatory ratio (squirrel monkeys [2]): decreased ventilatory ratio; Emax (MOR [4]): 20.1%; Ki (MOR [7]): 0.5 nM; antinociceptive effects (squirrel monkeys [5]): had antinociceptive effects in vivo
CC=C[C@H]1C2CCC[C@@]1(c1cccc(O)c1)CCN2CCc1ccccc1 (stereo in doubt) [Compound 26, 3-((1R,5R,9R)-2-Phenethyl-9-((E)-prop-1-en-1-yl)-2-azabicyclo[3.3.1]nonan-5-yl) phenol] | 142.5 ± 23.7% | 7.52 ± 2.93 nM |  | 126.7 ± 2.6% | 4.02 ± 0.25 nM |  |  | KOR antagonist (result in words) [3]: moderately potent KOR antagonist
C=C[C@@H]1[C@H]2CCC[C@]1(c1cccc(O)c1)CCN2CCc1ccccc1 [Compound 14, 3-((1R,5S,9S)-2-Phenethyl-9-vinyl-2-azabicyclo[3.3.1]nonan-5-yl) phenol] |  |  | 2.12 nM | 101.8 ± 19.1% | 19.8 ± 9.71 nM | 57 ± 21.4 nM | 67.3% | Emax [6]: 22.6%; effect on ventilatory ratio (squirrel monkeys [2]): without selective effects on ventilatory ratio; respiratory effects compared with morphine (squirrel monkeys [2]): lessor respiratory effects; Emax (MOR [4]): 10.5%; antinociceptive effects (squirrel monkeys [5]): antinociceptive effects in some, but not all animals
C=C[C@@H]1[C@@H]2CCC[C@@]1(c1cccc(O)c1)CCN2CCc1ccccc1 [Compound 18, 3-((1S,5R,9S)-2-Phenethyl-9-vinyl-2-azabicyclo[3.3.1]nonan-5-yl) phenol] |  |  | 3.94 nM | 105.6 ± 4.6% | 128 ± 48.2 nM | 122 ± 47.1 nM | 46.6% | Emax [6]: 40.6%
CCC=C[C@H]1[C@H]2CCC[C@]1(c1cccc(O)c1)CCN2CCc1ccccc1 (stereo in doubt) [Compound 29, 3-((1R,5S,9R)-9-((E)-but-1-en-1-yl)-2-phenethyl-2-azabicyclo[3.3.1]nonan-5-yl) phenol] | 166.6 ± 40.0% | 69 ± 4.83 nM | 11.6 nM | 109.5 ± 8.3% | 328 ± 96.9 nM |  | 95.8% | 
CC=C[C@@H]1[C@H]2CCC[C@]1(c1cccc(O)c1)CCN2CCc1ccccc1 (stereo in doubt) [Compound 23, 3-((1R,5S,9S)-2-Phenethyl-9-((E)-prop-1-en-1-yl)-2-azabicyclo[3.3.1]nonan-5-yl) phenol] | 74.5 ± 2.3% |  | 0.07 nM | 114.8 ± 11.2% | 238 ± 52.6 nM | > 10000 nM | 101% | IC50 [1]: 9.69 ± 2.23 nM; MOR potency relative to morphine (mu-opioid receptor (MOR)): 30 fold
CCC=C[C@H]1[C@@H]2CCC[C@@]1(c1cccc(O)c1)CCN2CCc1ccccc1 (stereo in doubt) [Compound 34, 3-((1S,5R,9R)-9-((E)-but-1-en-1-yl)-2-phenethyl-2-azabicyclo[3.3.1]nonan-5-yl) phenol] | 211.5 ± 24.7% | 8.22 ± 2.44 nM |  | 98.2 ± 2.3% | 0.79 ± 0.28 nM |  |  | DOR antagonist (result in words) [1]: potent DOR antagonist; KOR antagonist (result in words) [3]: moderately potent KOR antagonist
CCC=C[C@@H]1[C@H]2CCC[C@]1(c1cccc(O)c1)CCN2CCc1ccccc1 (stereo in doubt) [Compound 30, 3-((1R,5S,9S)-9-((E)-but-1-en-1-yl)-2-phenethyl-2-azabicyclo[3.3.1]nonan-5-yl) phenol] | 182.3 ± 56.4% | 3220 ± 572 nM | 14.8 nM | 103.8 ± 9.2% | 283 ± 46.4 nM |  | 89.8% | 
CCC=C[C@@H]1[C@@H]2CCC[C@@]1(c1cccc(O)c1)CCN2CCc1ccccc1 (stereo in doubt) [Compound 33, 3-((1S,5R,9S)-9-((E)-but-1-en-1-yl)-2-phenethyl-2-azabicyclo[3.3.1]nonan-5-yl) phenol] | 226.1 ± 14.0% | 520 ± 144 nM |  | 96.2 ± 0.9% | 12.2 ± 2.49 nM |  |  | 
C=C[C@H]1[C@@H]2CCC[C@@]1(c1cccc(O)c1)CCN2CCc1ccccc1 [Compound 19, 3-((1S,5R,9R)-2-Phenethyl-9-vinyl-2-azabicyclo[3.3.1]nonan-5-yl) phenol] |  |  |  |  |  |  |  | DOR Antagonist % Imax+/-SEM [1]: 143.65 ± 41.03 (201.4 ± 35.9%); DOR antagonist (result in words) [1]: weak DOR and KOR antagonist; IC50 [1]: 144 nM; KOR Antagonist % Imax+/-SEM [3]: 28.39 ± 4.24 (104.9 ± 11.2%); KOR antagonist (result in words) [3]: weak DOR and KOR antagonist; IC50 [3]: 28.4 nM
